# Values of other authors as cited in patent publication EP1482795B1, “NEW IMMU[…]” (CORIXA CORPORATION, priority 2002, dated 2003).
substance,measurement,setting,value
Monophosphoryl lipid A [MPL® immunostimulant],doses that can be safely administered to humans,,at least 20 µg/kg
same,"dose levels at which increases in temperature, flu-like symptoms, increasing heart rate and modest decreases in blood pressure can occur","humans, some patients",≥ 0.01 mg/kg
